Experiment [1] deals with HS68 cells (human skin fibroblast cell line (Rb-positive)). Nature of the experiment: G1 arrest (cellular G1 and S-phase) assay. The format is cell-based. The note with it: Homo sapiens, Hs68, HS68 cells. The procedure:
For determination of cellular fractions in various stages of the cell cycle following various treatments, HS68 cells (human skin fibroblast cell line (Rb-positive)) were stained with propidium iodide staining solution and run on Dako Cyan Flow Cytometer. The fraction of cells in G0-G1 DNA cell cycle versus the fraction in S-phase DNA cell cycle was determined using FlowJo 7.2 0.2 analysis.
The compounds listed in Table 1 were tested for their ability to arrest HS68 cells at the G1 phase of the cell cycle.

For experiment [2], the system named is H69 (human small cell lung cancer - Rb-negative) cells. Put plainly: Cellular proliferation assay (CellTiter-Glo), H69. The format is cell-based. The note with it: NCI-H69, 96 h, four days. The procedure:
(§1) Cellular proliferation assays were conducted using the following Rb-negative cancer cell lines: H69 (human small cell lung cancer—Rb-negative) cells or A2058 (human metastatic melanoma cells—Rb-negative). These cells were seeded in Costar (Tewksbury, Mass.) 3093 96 well tissue culture treated white walled/clear bottom plates. Cells were treated with the compounds of Table 1 as nine point dose response dilution series from 10 uM to 1 nM. Cells were exposed to compounds and then cell viability was determined after either four (H69) or six (A2058) days as indicated using the CellTiter-Glo® luminescent cell viability assay (CTG; Promega, Madison, Wis., United States of America) following the manufacturer's recommendations. Plates were read on BioTek (Winooski, Vt.) Syngergy2 multi-mode plate reader. The Relative Light Units (RLU) were plotted as a result of variable molar concentration and data was analyzed using Graphpad (LaJolla, Calif.) Prism 5 statistical software to determine the EC50 for each compound.

Experiment [3] relates to A2058 (human metastatic melanoma cells - Rb-negative). Nature of the experiment: Cellular proliferation assay (CellTiter-Glo), A2058. The format is cell-based. The note with it: A2058, 144 h, six days. The procedure:
as §1

For a further experiment, the target named is CDK2/CyclinA (Homo sapiens (Human), UniProt P24941). Nature of the experiment: CDK2/CyclinA kinase assay (Nanosyn, Caliper microfluidic). The format is biochemical. The note with it: Table 2. The gist of the method: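 Each compound was run as a 12-point single-replicate titration, with staurosporine as reference, using microfluidic (Caliper) separation of phosphorylated peptide.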

A further experiment has as its target CDK4/CyclinD1 (Homo sapiens (Human), UniProt P11802). Nature of the experiment: CDK4/CyclinD1 kinase assay (Nanosyn, Caliper microfluidic). It is filed as biochemical. The note with it: Table 2; read-out: CDK4/CycD1 IC50.
For the next experiment, the target named is CDK2/CyclinE (Homo sapiens (Human), UniProt P24941). Put plainly: CDK2/CyclinE kinase assay (Nanosyn, Caliper microfluidic). It is filed as biochemical. The note with it: Table 2.

Where only a bound is given, the exact number is not on record here.

CDK4/CyclinD1, sequence (P11802 whole entry, species assumed): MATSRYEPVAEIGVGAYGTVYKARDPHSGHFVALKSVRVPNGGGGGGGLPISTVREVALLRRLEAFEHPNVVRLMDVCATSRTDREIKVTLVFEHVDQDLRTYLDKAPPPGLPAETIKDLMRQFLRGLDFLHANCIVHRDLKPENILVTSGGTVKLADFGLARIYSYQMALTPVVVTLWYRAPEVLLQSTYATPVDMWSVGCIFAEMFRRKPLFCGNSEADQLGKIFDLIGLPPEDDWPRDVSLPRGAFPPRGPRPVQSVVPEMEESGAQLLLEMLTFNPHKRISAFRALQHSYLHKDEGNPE
CDK4/CyclinD1, sequence (P24385 whole entry partner, species assumed): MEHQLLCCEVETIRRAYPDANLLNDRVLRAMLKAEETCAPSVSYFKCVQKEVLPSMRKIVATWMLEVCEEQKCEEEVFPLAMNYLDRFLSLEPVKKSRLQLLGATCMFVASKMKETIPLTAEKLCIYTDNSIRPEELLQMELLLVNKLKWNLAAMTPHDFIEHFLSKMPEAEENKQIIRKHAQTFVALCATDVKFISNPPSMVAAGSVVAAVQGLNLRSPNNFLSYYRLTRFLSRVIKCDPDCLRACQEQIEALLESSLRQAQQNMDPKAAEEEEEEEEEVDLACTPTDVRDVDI

With `CN1CCN(C(=O)c2ccc(Nc3ncc4cc5n(c4n3)C3(CCCC3)CNC5=O)nc2)CC1` [BBB], the EC50 in experiment [1] was 230 nM; in experiment [2], more than 3000 nM; in experiment [3], more than 3000 nM. Moreover, at CDK2/CyclinA, the “Fold Selectivity (CDK2/CycA/CDK4)” value was 31. The IC50 at CDK2/CyclinA (read-out: CDK2/CycA IC50) is 85 nM; at CDK4/CyclinD1, 2.8 nM; at CDK2/CyclinE (read-out: CDK2/CycE IC50), 187 nM. Moreover, the “Fold Selectivity (CDK2/CycE/CDK4)” value at CDK2/CyclinE worked out at 68.

Values taken from patent US9464092B2, “Transient protection of normal cells during chemotherapy” (G1 Therapeutics, Inc., priority 2013, dated 2016).
